Results as given in US20250263771A1, “SYSTEM AND METHODS TO MEASURE CELL VIABILITY IN HIGH THROUGHPUT VIA CONTINUOUS GEOMETRY” (priority 2022, published 2025).
Like-named read-outs stand apart in the source and are kept apart here.

Tests used:
E. coli strain BW25113 = test: Geometric Viability Assay (GVA) of drug-treated stationary and exponential E. coli cultures; type: cell-based, Escherichia coli; conditions: for activity in dose response, stationary versus exponential cultures (follow up of Enzo library hits): stationary and exponential cultures; for activity in aerobic versus anaerobic environments: stationary phase cells; for resistance of stationary phase cells compared with exponentially growing cells: 3 antibiotics, 6 concentrations, 5 durations; for reduction in viability: within an hour
From the text: Previous studies have found slow growth is a non-inheritable form of antibiotic tolerance buying time for viable cells to develop genetic resistance. Slow-growing cells commonly have reduced metabolic activity and DNA replication as compared to exponentially growing cells. As a result, slow-growing cells are refractory to antibiotics targeting DNA synthesis (fluoroquinolones), protein translation (aminoglycosides), and cell wall biogenesis (beta-lactams). Growth-dependent tolerance can only be observed by measuring viability but the tedium and cost of the drop CFU assay limits extensive profiling. Using GVA, Applicants directly compared the viability of exponentially growing cells and stationary phase cells to different doses of three antibiotics for varying amounts of time. In total, Applicants tested 3 antibiotics at 6 different concentrations for 5 different durations against stationary and exponential cells, in duplicate, for a total of 360 viability measurements (FIG. 5a,b).
To explore the GVA technique's potential for high throughput viability measurements, Applicants screened the ICCB Enzo Bioactive library (469 compounds) against stationary and exponentially growing cultures (FIG. 5c,d). […] The viability of BW25113 E. coli treated with the Enzo library was measured in both exponential and stationary phase. Including controls and removing pipette errors, 2267 conditions were measured. […] Mitomycin C is a known antibiotic acting through DNA cross-linking. […] Phentolamine is an α-adrenergic receptor antagonist.
(§1) For stationary phase treatments, bacterial cells were grown overnight (≥16 hours) in a shaking incubator (180 RPM). For P. putida only, cells were grown for 2 days. Upon entering the stationary phase, cells were distributed into a 96 well flat-bottom plates with 100 μL of cells per well. Drug treatments at 1000× were plated into a separate 96 well-round bottom plate. A 100 nL pin transfer was used to dilute the drug plate into the cell plate at a 1:1000 ratio. This plate was then placed into a shaking incubator for the experimental time. To measure antibiotic treatments in the exponential phase, overnight culture was diluted 1:1000 into fresh LB. This culture was then placed into the incubator for 2 hours. After this incubation, the cells were then distributed to the 96 well plate followed by drug treatment.
(§2) Embedding for GVA: The goal for embedding was to have a uniformly mixed sample in liquid hydrogel that would quickly solidify the 3D mold. Applicants used 0.5% agarose as a convenient hydrogel that would solidify quickly and prevent cell motility once solidified.

[1] = system: promoters of genes downstream of lexA (pol, dinB, dinG, yjiH, lexA)
From the text: (§3) Filamentation is a classic hallmark of SOS activation and increases in ROS are an established SOS activator. Therefore, Applicants wondered if DPI was activating SOS. Applicants examined the promoter activity of genes downstream of lexA using the PEC GFP-promoter library. LexA is a master transcriptional repressor of genes in the SOS regulon such as pol, dinB, dinG, and yjiH, and is auto-catalytically degraded by activated recA.
(§4) Strains and growth conditions: E. coli strain BW25113 was used unless otherwise noted in the text. This strain was acquired from the Yale Coli Genetic Stock Center. E. coli was grown in LB (Sigma Aldrich) at 37° C. in a shaking incubator. B. subtilis strain W168 was a kind gift from the Garner lab and was grown in LB at 37° C. in a shaking incubator. P. putida strain KT2440 was a kind gift from Jacob Fenster and was grown in LB at 30° C. in a shaking incubator. S. typhimurium strain SL1344 was a kind gift from the Corrie Detweiler and was grown in LB at 37° C. in a shaking incubator. S. cerevisiae strain BY4741 was a kind gift from Roy Parker and was grown in YEPD at 30° C. in a shaking incubator. P. aeruginosa strain PA01 was a kind gift from the Zemer Gitai and was grown in LB at 37° C. in a shaking incubator. Knockouts were selected from the Keio collection (Dharmacon). The PEC promoter library in E. coli was acquired from Dharmacon (PEC3877).
(§5) Microscopy measurements: For all microscopy experiments, cells from overnight cultures were diluted 1:100 in minimal media (PMM) and shaken for 2 hours at 37° C. to ensure cells had exited lag phase. After 2 hours of growth, 2 μL of dilute cell culture was added to the top of a cooled, 200 μL 2% low melt agarose pad with CellROX dye (5 μM). The agarose pad was molded to fit in 96-well square bottom plates (Brooks Automation, MGB096-1-2-LG-L). After 10 minutes of drying, the pad with affixed cells was inverted and pressed into the bottom of an imaging plate. Fields of view (FOV) were selected manually on the microscope. After FOVs were selected and before the imaging started, the drug was added on top as done previously.

[2] = system: cytoplasmic superoxide (ROS) in E. coli; test: Single-cell CellROX fluorescence (ROS levels) over time; type: cell-based, Escherichia coli; conditions: for effect on ROS (CellROX signal) over time: lethal dose, compared to untreated control
Method: as §5

S. typhimuirium = conditions: DPI crossed with ciprofloxacin or gentamicin
Method: as §4

stationary phase E. coli = conditions: for increase in viability as compared to either drug alone: 24 hours treatment
Method: as §1, §2

E. coli [3] = conditions: 4 hours of treatment, less than 10 μg/mL DPI
From the text: as §3, §5

E. coli knockout mutants = system: E. coli knockout mutants
Method: as §4, §1, §2

[4] = system: E. coli, stationary phase and exponential phase; test: GVA viability screen of an 80-compound drug library, 96 well format; type: cell-based, Escherichia coli; conditions: treated for 4 hours, duplicate
Method: FIGS. 27A-B: Screen of compounds that affect viability in exponential and stationary phase using data from a GVA assay in 96 well format drug testing. The antibiotic potential of a drug library (80 compounds) was tested against exponential and stationary phase bacteria in duplicate. (A) Viability reduction of compounds in exponential (top) and stationary (bottom) phase cells. Each x is the mean of 2 biological replicates. (B) Scatter plot of the viability screen comparing exponential and stationary phase activity. Each blue dot represents the mean of 2 replicates of a compound treatment. Red dots represent DMSO controls. The dashed lines represent 3 times the standard deviation of the negative controls. Screen was performed with E. coli with both stationary phase and exponential phase bacterial populations. Both phases were screened in duplicate. 80 compounds and 16 controls were screened. Cells in stationary and exponential phase were treated with the compound for 4 hours, followed by casting into pipet tips using the GVA protocol.

E. coli [5] = conditions: DPI and ciprofloxacin, optical density over 8 hours
From the text: FIG. 6A-I: DPI generates ROS, activates the SOS response, and antagonizes ciprofloxacin. a) Median, single-cell CellROX signal as a function of time for DPI (blue), ciprofloxacin (orange), and an untreated control (yellow). b) Efficacy of DPI in aerobic and anaerobic conditions. […] Brightness and contrast is the same for all images. […] The dose response for the wild-type (WT) cells is depicted in green or purple, respectively. Shaded errorbars equal to the standard deviation in logspace between 3 replicates. […] Each square in the heatmap was the mean of duplicate conditions. Colorbar correspond to the log10 (CFUs/mL) for each dose combination. […] Optical density was measured for each condition over 8 hours and the integrated area under the growth curve (AUGC) is depicted (colorbar). i) Dose response curves for temporally staggered combinations. All treatments lasted for 24 hours total. Pretreated conditions were treated for 2 hours with a single drug followed by 22 hours with both drugs.
To test for antagonism, Applicants measured viability in a time-resolved, checkerboard assay using GVA (FIGS. 6f, 21). In the checkerboard assay, DPI was combined with either ciprofloxacin or gentamicin across a 6×6 dose matrix. The ease of GVA enabled sampling the checkerboard over time, resulting in a complete pharmacokinetic profile of the drug-drug interaction.

[6] = 24 hours total, 2 hours single drug then 22 hours both drugs

Cc1cccc(CCN2CCC(C(=O)c3ccc(NS(C)(=O)=O)cc3)CC2)n1 [E-4031]
activity in dose response, stationary versus exponential cultures (follow up of Enzo library hits) (E. coli strain BW25113): did not have any dose-dependent effect on viability

c1ccc2c(c1)[I+]c1ccccc1-2 [DPI, diphenyleneiodonium]
dinB, dinG, and yjiH promoter activity [1]: DPI-dependent increase
pol promoter activity ([1]; compared to a ribosomal protein control (rrnB)): persistent, dose-dependent induction
time to increased lexA promoter activity after DPI addition ([1]; lexA promoter): ≤ 90 min
dose giving the highest promoter activity ([1]; pol promoter, dose where filamentation was observed): 3 µg/mL
ROS after the initial decrease ([2]; lethal DPI dose): rapid spike in ROS
time to ROS nadir after the drug was added ([2]; lethal DPI dose): around 75 minutes
effect on ROS (CellROX signal) over time [2]: substantially decreased ROS
antagonism of ciprofloxacin and gentamicin (S. typhimuirium): also observed
effect of 2 hours DPI pretreatment before adding ciprofloxacin (stationary phase E. coli; [6]): further increased protection
effect of 2 hours ciprofloxacin pretreatment before DPI (stationary phase E. coli; [6]): reduced DPI's antagonistic effects
increase in viability as compared to either drug alone (stationary phase E. coli; DPI combined with ciprofloxacin): 1,000 fold
increase in viability as compared to either drug alone (stationary phase E. coli; DPI combined with gentamicin): 1,000 fold
cell morphology (E. coli [3]): formation of bacterial filaments
potency in knockouts of other DNA repair enzymes, redox repair enzymes, or ROS scavengers (E. coli knockout mutants; either growth phase): did not substantially change the potency
susceptibility of recA knockouts (E. coli knockout mutants; recA knockout, stationary and exponential phases): more susceptible to DPI
potency in yedZ and fre knockouts (E. coli knockout mutants; stationary cells): modestly increased the potency
activity in dose response, stationary versus exponential cultures (follow up of Enzo library hits) (E. coli strain BW25113): active against both stationary and growing cultures
efficacy on adding a ROS scavenger (ascorbic acid) (E. coli strain BW25113; increasing concentrations of ascorbic acid): reduced DPI efficacy
viability at intermediate concentrations (E. coli strain BW25113; intermediate DPI concentrations, GVA): maintained viability
activity in aerobic versus anaerobic environments (E. coli strain BW25113; 24 hours): less active in anaerobic cultures
activity in viability screen [4]: bactericidal activity
antagonism in growth inhibition assay (E. coli [5]): not observed

Cc1ccc(N(CC2=NCCN2)c2cccc(O)c2)cc1 [phentolamine]
sensitivity of stationary versus exponentially growing cells (E. coli strain BW25113; high concentrations (20 μg/mL)): stationary cells were more sensitive

O=C(O)c1cn(C2CC2)c2cc(N3CCNCC3)c(F)cc2c1=O [ciprofloxacin]
effect on ROS (CellROX signal) over time [2]: monotonically increasing levels of ROS
pharmacodynamic profile (E. coli strain BW25113; 10 μg/mL, initial killing within an hour, stable through 6 hours, second phase by 24 hours): biphasic pharmacodynamic profile
resistance of stationary phase cells compared with exponentially growing cells (E. coli strain BW25113; GVA): more resistant
reduction in viability (E. coli strain BW25113; exponentially growing cultures, 10 μg/mL): 10 fold
reduction in viability (E. coli strain BW25113; stationary cultures, 10 μg/mL): 10 fold
activity in aerobic versus anaerobic environments (E. coli strain BW25113; 24 hours): less active in anaerobic cultures

CC1(C)S[C@@H]2[C@H](NC(=O)C(C(=O)O)c3ccccc3)C(=O)N2[C@H]1C(=O)O (some centres unmarked) [carbenicillin]
resistance of stationary phase cells compared with exponentially growing cells (E. coli strain BW25113; GVA): more resistant
change in viable cells (E. coli strain BW25113; exponential cells, 10 μg/mL, after 24 hours treatment): increase in viable cells
change in number of colonies (E. coli strain BW25113; exponential cells, 10 μg/mL, first 6 hours): no change in the number of colonies
decrease in viability (E. coli strain BW25113; exponential cells, 100 μg/mL, 24 hours): 10,000 fold
decline in viability (E. coli strain BW25113; stationary cells, 100 μg/mL, 24 hours): < 10 fold

gentamicin
resistance of stationary phase cells compared with exponentially growing cells (E. coli strain BW25113; GVA): more resistant
activity in aerobic versus anaerobic environments (E. coli strain BW25113; 24 hours): less active in anaerobic cultures
reduction in stationary phase cell viability (E. coli strain BW25113; stationary phase, 10 μg/mL, full 24 hours): > 10 fold

NC(=Nc1ccccc1)NC(=O)c1nc(Cl)c(N)nc1N [phenamil]
activity in dose response, stationary versus exponential cultures (follow up of Enzo library hits) (E. coli strain BW25113): did not have any dose-dependent effect on viability

CO[C@@]12[C@H](COC(N)=O)C3=C(C(=O)C(C)=C(N)C3=O)N1C[C@@H]1N[C@@H]12 [mitomycin C]
activity in dose response, stationary versus exponential cultures (follow up of Enzo library hits) (E. coli strain BW25113): more active against exponentially growing cells compared to cells in stationary phase
activity in viability screen [4]: bactericidal activity
